Assay results reported in patent US20100190856A1, “Novel Polyhydroxylated Compounds as Fatty Acid Synthase (FASN) Inhibitors” (UNIVERSIDAD COMPLUTENSE DE MADRID, priority 2007, published 2010).
Entries after “also recorded” stand apart in the source; their conditions may differ.

Key:
[1] = Weight loss in vivo (data not shown)
rat CPT-1 = target: T1, rat CPT-1 (Rattus norvegicus, UniProt Q63704); test: Carnitine palmitoyltransferase 1 (CPT-1) assay, yeast mitochondria; assay type: biochemical; parameters: % CPT-1 activity: concentration or dose not given beside the values; conditions: for % CPT-1 activity: % of DMSO control, mitochondria of P. pastoris expressing rat CPT-1
T1 construct: made in house; host or cells: Pichia pastoris GS115 (isolated intact mitochondria)
T1 sequence (Q63704 1-772): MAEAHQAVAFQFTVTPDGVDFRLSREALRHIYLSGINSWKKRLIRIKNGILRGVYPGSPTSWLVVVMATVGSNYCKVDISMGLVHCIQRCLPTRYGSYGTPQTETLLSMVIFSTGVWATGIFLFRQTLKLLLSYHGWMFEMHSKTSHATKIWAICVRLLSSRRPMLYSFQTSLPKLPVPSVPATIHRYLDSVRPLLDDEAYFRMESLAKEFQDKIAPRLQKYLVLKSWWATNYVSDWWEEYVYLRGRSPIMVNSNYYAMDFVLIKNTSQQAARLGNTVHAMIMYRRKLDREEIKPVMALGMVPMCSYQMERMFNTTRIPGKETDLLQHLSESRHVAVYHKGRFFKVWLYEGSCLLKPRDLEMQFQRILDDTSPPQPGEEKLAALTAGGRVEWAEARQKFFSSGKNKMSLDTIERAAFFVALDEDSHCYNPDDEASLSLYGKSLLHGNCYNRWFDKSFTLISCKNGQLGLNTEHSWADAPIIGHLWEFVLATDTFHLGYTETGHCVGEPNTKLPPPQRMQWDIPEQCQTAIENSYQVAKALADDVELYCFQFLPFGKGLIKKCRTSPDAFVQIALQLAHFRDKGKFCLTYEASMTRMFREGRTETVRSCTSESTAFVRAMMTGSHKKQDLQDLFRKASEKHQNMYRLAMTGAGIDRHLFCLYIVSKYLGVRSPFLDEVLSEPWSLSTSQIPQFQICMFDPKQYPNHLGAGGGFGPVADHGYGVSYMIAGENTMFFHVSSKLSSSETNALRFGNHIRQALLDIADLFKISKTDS
Description: The expression plasmid pRCPT-Iβ/pHW010 (provided by Gebre Woldegiorgis, Beaverton, Oreg. Published in Woldegiorgis G. et al. Biochem. Biophys. Res. Commun. 2004, 325, 660-4.) was linearized in the GAP gene promoter by digestion with AvrII and integrated into the GAPp locus of P. pastoris GS115 by electroporation. Histidine prototrophic transformants were selected on YND plates and grown on YND medium. Mitochondria were isolated by disrupting the yeast cells with glass beads as previously described.
CPT activity was assayed by the forward exchange method using L-[^3H] carnitine as previously described (Nicot, C. et al., Biochem. Biophys. Res. Comm. 2004, 325, 2745-7). In a total volume of 0.5 mL, the standard enzyme assay mixture contained 0.2 mM L-[^3H]carnitine (˜5000 dpm/nmol), 80 μM palmitoyl-CoA, 20 mM HEPES (pH 7.0), 1% fatty acid-free albumin, and 40-75 mM KCl, with or without malonyl-CoA as indicated. Reactions were initiated by addition of isolated intact yeast mitochondria. The reaction was linear up to 4 min, and all incubations were done at 30° C. for 3 min. Reactions were stopped by addition of 6% perchloric acid and were then centrifuged at 2000 rpm for 7 min. The resulting pellet was suspended in water, and the product [^3H]palmitoylcarnitine was extracted with butanol at low pH. After centrifugation at 2000 rpm for 2 min, an aliquot of the butanol phase was transferred to a vial for radioactive counting.

AKT = test: Immunoblot analysis of AKT and phospho-AKT in SK-Br3 cells; assay type: cell-based, human; conditions: for time after treatment at which a marked decrease of p-AKT was observed / expression levels of p-AKT proteins: SK-Br3, 30 μM; for expression levels of p-AKT proteins: 6 hours after treatment; for active form of Akt: within 2 h after treatment
Experimental: Following the treatment of SK-Br3 cells with the studied compound at the desired concentrations and time intervals, cells were harvested by treatment with trypsin-EDTA solution, washed twice with PBS and stored at −80° C. The cells were lysed in lysis buffer (1 mM EDTA, 150 mM NaCl, 100 μg/mL PMSF and 50 mM Tris-HCl, pH 7.5) and kept at 4° C. while they were routinely mixed every 2 min on the vortex during 30 min. A sample was taken for measurement of protein content by a BioRad assay (Bio-Rad Laboratories). Equal amounts of protein were heated in sodium dodecyl sulphate (SDS) sample buffer (Laemmli) for 5 min at 95° C., separated on a 3-8% SDS-polyacrylamide gel (FASN, p185^HER2/neu, phospho-p185^HER2/neu) or 4-12% SDS-polyacrylamide gel (AKT, phospho-AKT, ERK1/2, phospho-ERK1/2 and PARP) and transferred onto nitrocellulose membranes. The membranes were incubated for 1 h at room temperature in blocking buffer (2.5% powdered-skim milk in TBS-T [10 mM Tris-HCl pH 8.0, 150 mM NaCl and 0.05% Tween-20]) to prevent non-specific antibody binding. The primary antibody used was a monoclonal antibody. Antibody dilution was prepared in blocking solution and blots were incubated with monoclonal antibody overnight at 4° C. […] Blots were re-probed with an antibody for β-actin to control for protein loading and transfer.

[2] = system: MDA-MB-231 breast cancer cells; test: MTT cytotoxicity assay, MDA-MB-231 breast cancer cells; assay type: cell-based, human; conditions: Homo sapiens, MDA-MB-231 cells, 48 h, read-out: IC50, growth inhibition, MDA-MB-231

SMILES | weight loss in vivo [1] | stimulation of CPT-1 activity (in words) (rat CPT-1) | % CPT-1 activity (rat CPT-1) | time after treatment at which a marked decrease of p-AKT was observed (AKT) | expression levels of p-AKT proteins (AKT) | active form of Akt (AKT) | IC50 [2]
O=C(Oc1cc(OC(=O)c2cc(O)c(O)c(O)c2)c2ccccc2c1)c1cc(O)c(O)c(O)c1 [f, 1,3-bis[(3,4,5-trihydroxybenzoyl)oxy]naphthalene] | without inducing weight loss in vivo | did not stimulate CPT-1 activity; also recorded: without parallel stimulation of CPT-1 activity | 89 ± 4% | 24 h | low decrease | marked decrease | 78.7 ± 4 µM
O=C(Oc1ccc(OC(=O)c2cc(O)c(O)c(O)c2)c2ccccc12)c1cc(O)c(O)c(O)c1 [i, 1,4-bis[(3,4,5-trihydroxybenzoyl)oxy]naphthalene] | without inducing weight loss in vivo | did not stimulate CPT-1 activity; also recorded: without parallel stimulation of CPT-1 activity | 90 ± 5% | 12 h | low decrease | marked decrease | 62.5 ± 10.6 µM
